Experimental data taken from PMC5108454 (Cell metabolism, 2016).

What was measured:
[1] = molecular target: T1, Sdh (succinate dehydrogenase; complex II) (Mus musculus, UniProt Q8K2B3); assay: complex II enzyme activity microplate assay, Dixon plot; type: biochemical
[2] = molecular target: T1, Sdh (succinate dehydrogenase; complex II); assay: complex II enzyme activity microplate assay, Lineweaver-Burk plot; type: biochemical; conditions: sodium succinate hexahydrate varied in activity buffer with phospholipid mixture

T1 sequence (Q8K2B3 43-664): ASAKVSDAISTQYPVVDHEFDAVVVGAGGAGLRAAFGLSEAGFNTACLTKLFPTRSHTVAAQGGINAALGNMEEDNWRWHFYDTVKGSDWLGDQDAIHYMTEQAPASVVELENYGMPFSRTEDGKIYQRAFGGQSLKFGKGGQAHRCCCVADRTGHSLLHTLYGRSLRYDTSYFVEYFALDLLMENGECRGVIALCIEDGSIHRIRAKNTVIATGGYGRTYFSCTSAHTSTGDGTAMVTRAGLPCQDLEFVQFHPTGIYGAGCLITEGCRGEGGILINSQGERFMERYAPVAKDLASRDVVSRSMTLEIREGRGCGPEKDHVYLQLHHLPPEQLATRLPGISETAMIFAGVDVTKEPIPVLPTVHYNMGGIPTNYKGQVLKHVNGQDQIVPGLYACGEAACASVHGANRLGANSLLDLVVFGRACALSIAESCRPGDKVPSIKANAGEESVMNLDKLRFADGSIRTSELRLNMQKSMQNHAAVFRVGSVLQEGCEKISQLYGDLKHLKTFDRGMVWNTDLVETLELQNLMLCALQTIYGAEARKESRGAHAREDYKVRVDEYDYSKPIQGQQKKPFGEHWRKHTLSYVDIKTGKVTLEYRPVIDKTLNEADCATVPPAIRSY
T1 sequence (Q9CQA3 31-282 partner): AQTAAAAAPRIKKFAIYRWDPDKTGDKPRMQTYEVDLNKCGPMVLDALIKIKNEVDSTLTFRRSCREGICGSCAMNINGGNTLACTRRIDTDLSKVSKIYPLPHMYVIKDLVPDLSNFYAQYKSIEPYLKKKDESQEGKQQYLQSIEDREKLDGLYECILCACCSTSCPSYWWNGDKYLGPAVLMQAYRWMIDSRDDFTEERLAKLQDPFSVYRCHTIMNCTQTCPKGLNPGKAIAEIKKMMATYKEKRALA
T1 sequence (Q9CZB0 30-169 partner): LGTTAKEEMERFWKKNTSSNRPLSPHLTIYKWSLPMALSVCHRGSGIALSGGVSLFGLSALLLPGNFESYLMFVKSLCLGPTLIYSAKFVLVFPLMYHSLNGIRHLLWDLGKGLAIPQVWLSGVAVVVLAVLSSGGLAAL
T1 sequence (Q9CXV1 57-159 partner): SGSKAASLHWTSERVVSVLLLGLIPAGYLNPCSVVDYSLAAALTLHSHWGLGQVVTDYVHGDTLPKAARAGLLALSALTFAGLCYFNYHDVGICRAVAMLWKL

SMILES | Ki [1] | Km [2]
C=C(CC(=O)O)C(=O)O [itaconate] | 220 µM | 
O=C(O)CCC(=O)O [succinate] |  | 290 ± 800 µM
